This is an account of results in publication PMC8143342, “β-Ionone Attenuates Dexamethasone-Induced Suppression of Collagen and Hyaluronic Acid Synthesis in Human Dermal Fibroblasts” (Biomolecules, 2021).

The test has as its target T1, glucocorticoid receptor (GR) (Homo sapiens, UniProt P04150).
T1 construct: gene NR3C1; full-length GR
T1 sequence (P04150 1-777): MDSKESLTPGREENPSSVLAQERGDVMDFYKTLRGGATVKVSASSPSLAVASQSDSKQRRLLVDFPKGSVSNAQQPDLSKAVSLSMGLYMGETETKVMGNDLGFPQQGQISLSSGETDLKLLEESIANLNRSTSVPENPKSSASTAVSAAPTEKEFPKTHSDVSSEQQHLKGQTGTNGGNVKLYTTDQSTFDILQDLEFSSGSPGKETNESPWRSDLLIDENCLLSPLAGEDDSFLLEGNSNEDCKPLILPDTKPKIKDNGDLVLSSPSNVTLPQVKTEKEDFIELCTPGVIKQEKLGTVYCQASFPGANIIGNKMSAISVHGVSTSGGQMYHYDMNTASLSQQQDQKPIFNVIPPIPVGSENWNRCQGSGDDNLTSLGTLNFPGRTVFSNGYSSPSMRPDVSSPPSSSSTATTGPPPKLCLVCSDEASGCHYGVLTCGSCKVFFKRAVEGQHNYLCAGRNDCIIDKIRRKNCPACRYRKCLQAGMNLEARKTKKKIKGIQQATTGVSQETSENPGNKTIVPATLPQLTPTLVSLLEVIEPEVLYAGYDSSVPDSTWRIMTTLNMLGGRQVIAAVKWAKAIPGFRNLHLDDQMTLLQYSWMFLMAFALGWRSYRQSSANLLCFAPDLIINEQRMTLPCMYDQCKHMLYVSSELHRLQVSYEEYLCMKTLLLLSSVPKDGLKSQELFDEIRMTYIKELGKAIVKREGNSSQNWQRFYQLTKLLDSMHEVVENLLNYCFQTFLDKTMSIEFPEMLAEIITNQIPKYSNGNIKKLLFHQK
Put plainly: fluorescence polarization competition with fluorescent glucocorticoid ligand (PolarScreen GR Competitor Assay), purified GR. The class given is binding.

A word on the IC50: it is the concentration needed to halve the response being measured. High values mean lower potency, low ones higher potency. The molecule `CC(=O)/C=C/C1=C(C)CCCC1(C)C` [β-ionone] returned an IC50 of 66.1 µM.
